From US20220372040A1, “METTL3 MODULATORS” (Accent Therapeutics, Inc., priority 2020, published 2022)

Experiments:
MOLM-13 cells = assay: MOLM-13 96 Hour cell proliferation assay (Cell Titer-Glo); type: cell-based; details: Homo sapiens
Description: MOLM-13 96 Hour Cell Proliferation Assay
MOLM-13 (DSMZ) cells were seeded at 600 cells per well in a volume of 44 μL in a Greiner Bio-One CELLSTAR™ 384 Well Polystyrene Cell Culture clear bottom microplate in RPMI 1640 media containing 10% fetal bovine serum using a Multidrop Combi (ThermoFisher Scientific). Cells were incubated overnight at 37° C. in a humidified tissue culture incubator. To prevent evaporation or to reduce edge effect, add 50 μL or more H2O to an empty plate, cover, and place on top of the cell plates. The Mosquito® HTS Liquid Handler was used to make a compound/media intermediate plate by aliquoting 1 μL of compound from the initial compound dilution plate (concentrations ranging from 10.0 mM to 38.0 nM in 100% DMSO) into Bio-One 384-well polypropylene conical bottom microplate containing 49 μL of media containing the appropriate serum (50-fold dilution, 2% DMSO, compound concentrations ranging from 200.0 μM and […]). The Apricot liquid handling system was used to transfer 6.2 μL compounds from the intermediate plate into the seeding plate containing 44 μL cells (8-fold dilution spanning concentrations 25.0 μM to […], 0.25% DMSO final), and placed in a humidified tissue culture incubator at 37° C. After 96 hours, 25 μL of Cell Titer-Glo reagent (Promega) was added to each well using an Integra liquid handling system. The plate was protected from light using TopSeal-A (Black) film over the entire plate, added White Bottom seal film on the bottom of the entire plate for a better reading on the Envision, and placed on an IKA plate shaker for at 300 rpm for 10 minutes at room temperature. The plate was read on an EnVision plate reader (Perkin Elmer) using the Ultra Sensitive Luminescence protocol. Data analysis was performed by normalizing the raw luminescence units to an average of the positive control values for staurosporine (100% cell death) and the negative control values for DMSO (0% cell death). An IC50 was calculated using a 4-parameter logistic nonlinear regression model in GraphPad Prism.

METTL3/METTL14 = METTL3/METTL14 (Homo sapiens, UniProt Q86U44); assay: METTL3-14 standard enzyme assay (3H-SAM flashplate scintillation); type: biochemical; details: METTL3/METTL14 2.5 nM, RNA 100 nM, 3H-SAM 100 nM, 30 min
How it was run: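 Radiometric methylation readout: biotinylated RNA substrate UCUGGACUAAA and 3H-SAM, each 100 nM final, reacted 30 min at ambient temperature with 2.5 nM enzyme complex after 5 min compound preincubation (HEPES pH 7.5 buffer, KCl, MgCl2, DTT). Excess unlabelled SAM (15 μM) stopped reactions before streptavidin flashplate capture.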

METTL16 = molecular target: T1, METTL16 (Homo sapiens, UniProt Q86W50); assay: METTL16 assay (3H-SAM flashplate scintillation); type: biochemical; details: METTL16 100 nM, RNA 50 nM, 3H-SAM 200 nM, SAM 800 nM, 20 min
T1 sequence (Q86W50 1-562): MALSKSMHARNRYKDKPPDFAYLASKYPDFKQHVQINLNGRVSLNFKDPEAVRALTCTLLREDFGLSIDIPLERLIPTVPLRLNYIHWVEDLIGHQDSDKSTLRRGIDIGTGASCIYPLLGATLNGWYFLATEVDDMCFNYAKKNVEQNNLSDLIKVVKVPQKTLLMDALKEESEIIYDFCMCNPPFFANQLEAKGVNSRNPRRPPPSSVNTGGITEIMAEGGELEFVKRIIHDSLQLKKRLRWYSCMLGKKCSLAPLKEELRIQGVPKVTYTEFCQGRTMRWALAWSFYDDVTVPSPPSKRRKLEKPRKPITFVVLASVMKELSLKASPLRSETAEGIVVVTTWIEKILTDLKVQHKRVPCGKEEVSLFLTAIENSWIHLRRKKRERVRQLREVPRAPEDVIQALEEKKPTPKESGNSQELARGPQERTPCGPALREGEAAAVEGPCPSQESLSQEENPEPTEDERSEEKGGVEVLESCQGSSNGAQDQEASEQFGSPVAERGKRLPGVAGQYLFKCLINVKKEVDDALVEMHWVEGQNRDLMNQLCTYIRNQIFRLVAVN
Description: (§1) Assays were performed in a 25 μl-volume in 384-well V-bottom polypropylene microplates (Greiner Bio-One, cat. No. 781280) at ambient temperature. Optimized 1× assay buffer was 20 mM HEPES pH 7.5, 50 mM KCl, 1 mM DTT, 0.01% Tween, 0.01% BSG, 0.004 U/μl RNAseOUT (cat. No. 10777019, ThermoFisher Scientific, Waltham, Mass.). For compound screening METTL16 (final concentration, f.c.=100 nM) was added using a Multidrop Combi (ThermoFisher Scientific, Waltham, Mass.) and preincubated for 5 min. Reactions were started by adding 3′ biotinylated RNA ([…]-biotin) (f.c.=50 nM), 3H-SAM (f.c.=200 nM) and non-radiolabeled SAM (f.c.=800 nM) substrates. Reactions proceeded for 20 minutes and were quenched with excess non-radioactive SAM (f.c.=100 μM). The reactions were then transferred to streptavidin-coated flashplates and incubated for 2 hours at 25° C. Following two washing cycles with 0.1% Tween-20, the plates were sealed and read on a TopCount (PerkinElmer, Waltham, Mass.) plate-based scintillation counter. For determination of kinetic parameters, reaction times were optimized so that measurements were taken during the initial velocity phase of the reaction.

PRMT5-MEP50 = PRMT5-MEP50 (Homo sapiens, UniProt O14744); assay: PRMT5 assay (3H-SAM flashplate scintillation); type: biochemical; details: PRMT5-MEP50 2.5 nM, histone H4 peptide 100 nM, 3H-SAM 250 nM, 60 min
How it was run: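 Radiometric methyltransferase read-out: after 60 min reaction, excess unlabelled SAM (15 μM) stops turnover and biotinylated H4 peptide (100 nM) carrying 3H-methyl from 250 nM 3H-SAM is captured on streptavidin flashplates (2 h, 25° C) for scintillation counting. Enzyme, 2.5 nM PRMT5-MEP50, was preincubated 5 min with compound in pH 8.0 Tris buffer with DTT and Tween.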

METTL1/WDR4 = METTL1/WDR4 (Homo sapiens, UniProt Q9UBP6); assay: METTL1 assay (3H-SAM flashplate scintillation); type: biochemical; details: METTL1/WDR4 6.25 nM, RNA 25 nM, 3H-SAM 60 nM, 20 min; read-out: METTL1 IC50
Description: as §1, with “KCl, 250 μM MgCl2,” for “KCl,”, “METTL1/WDR4” for “METTL16”, “f.c.=6.25” for “f.c.=100”, “(f.c.=25” for “(f.c.=50 nM), 3H-SAM (f.c.=200”, “3H-SAM (f.c.=60” for “non-radiolabeled SAM (f.c.=800”, “(f.c.=15” for “(f.c.=100”

Sequence of METTL3/METTL14 (Q86U44 whole entry, species assumed): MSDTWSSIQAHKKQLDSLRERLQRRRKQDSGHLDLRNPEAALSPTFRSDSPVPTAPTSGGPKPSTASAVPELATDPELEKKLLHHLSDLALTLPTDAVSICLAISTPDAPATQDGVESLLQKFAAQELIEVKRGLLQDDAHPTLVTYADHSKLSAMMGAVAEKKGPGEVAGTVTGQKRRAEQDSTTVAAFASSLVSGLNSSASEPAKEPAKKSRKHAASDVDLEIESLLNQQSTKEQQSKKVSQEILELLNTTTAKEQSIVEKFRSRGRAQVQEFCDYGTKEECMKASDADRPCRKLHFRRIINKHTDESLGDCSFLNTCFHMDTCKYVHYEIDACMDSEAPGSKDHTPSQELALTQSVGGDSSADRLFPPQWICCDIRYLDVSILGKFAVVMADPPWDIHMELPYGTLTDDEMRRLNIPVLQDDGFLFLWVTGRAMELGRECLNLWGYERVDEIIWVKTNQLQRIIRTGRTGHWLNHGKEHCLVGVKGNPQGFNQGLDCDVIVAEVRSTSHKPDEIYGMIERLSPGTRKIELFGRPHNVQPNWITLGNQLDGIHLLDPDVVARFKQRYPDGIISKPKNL
Sequence of METTL3/METTL14 (Q9HCE5 whole entry partner, species assumed): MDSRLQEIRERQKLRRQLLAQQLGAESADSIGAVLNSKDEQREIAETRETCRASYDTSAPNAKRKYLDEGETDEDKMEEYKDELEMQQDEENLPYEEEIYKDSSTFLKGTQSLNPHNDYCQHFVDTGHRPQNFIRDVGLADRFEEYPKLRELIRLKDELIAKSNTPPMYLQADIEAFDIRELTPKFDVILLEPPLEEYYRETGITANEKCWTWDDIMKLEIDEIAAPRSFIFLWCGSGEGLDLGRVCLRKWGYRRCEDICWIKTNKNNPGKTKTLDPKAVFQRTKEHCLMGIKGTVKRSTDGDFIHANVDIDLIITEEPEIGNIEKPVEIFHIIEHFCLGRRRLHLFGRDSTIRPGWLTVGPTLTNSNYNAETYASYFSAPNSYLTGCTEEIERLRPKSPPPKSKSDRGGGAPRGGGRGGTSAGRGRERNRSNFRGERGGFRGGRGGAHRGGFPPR
Sequence of PRMT5-MEP50 (O14744 whole entry): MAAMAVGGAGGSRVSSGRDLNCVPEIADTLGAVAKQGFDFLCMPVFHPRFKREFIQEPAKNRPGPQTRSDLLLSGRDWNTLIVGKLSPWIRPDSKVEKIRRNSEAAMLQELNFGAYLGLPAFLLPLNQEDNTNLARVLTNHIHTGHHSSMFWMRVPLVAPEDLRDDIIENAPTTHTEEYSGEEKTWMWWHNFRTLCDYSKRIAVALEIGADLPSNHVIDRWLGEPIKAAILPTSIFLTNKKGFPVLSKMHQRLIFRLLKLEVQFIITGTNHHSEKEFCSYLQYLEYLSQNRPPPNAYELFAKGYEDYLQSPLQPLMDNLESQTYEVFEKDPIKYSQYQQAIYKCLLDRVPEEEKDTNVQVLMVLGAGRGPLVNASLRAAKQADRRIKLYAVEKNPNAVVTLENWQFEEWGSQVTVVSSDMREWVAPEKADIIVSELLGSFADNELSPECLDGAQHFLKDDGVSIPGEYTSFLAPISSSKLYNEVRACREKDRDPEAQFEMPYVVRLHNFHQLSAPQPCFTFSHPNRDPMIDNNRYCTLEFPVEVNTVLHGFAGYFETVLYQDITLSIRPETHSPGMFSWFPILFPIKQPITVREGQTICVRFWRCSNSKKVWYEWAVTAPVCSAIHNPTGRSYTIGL
Sequence of PRMT5-MEP50 (Q9BQA1 whole entry partner): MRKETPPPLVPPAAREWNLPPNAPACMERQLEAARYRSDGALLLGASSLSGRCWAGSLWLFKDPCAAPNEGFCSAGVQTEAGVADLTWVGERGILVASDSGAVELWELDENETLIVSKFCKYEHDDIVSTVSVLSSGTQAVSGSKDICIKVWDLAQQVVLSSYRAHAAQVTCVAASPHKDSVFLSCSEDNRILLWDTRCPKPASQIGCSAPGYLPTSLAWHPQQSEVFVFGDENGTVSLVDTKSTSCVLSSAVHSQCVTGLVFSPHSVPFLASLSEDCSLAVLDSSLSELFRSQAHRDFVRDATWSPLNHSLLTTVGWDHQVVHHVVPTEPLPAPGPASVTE
Sequence of METTL1/WDR4 (Q9UBP6 whole entry, species assumed): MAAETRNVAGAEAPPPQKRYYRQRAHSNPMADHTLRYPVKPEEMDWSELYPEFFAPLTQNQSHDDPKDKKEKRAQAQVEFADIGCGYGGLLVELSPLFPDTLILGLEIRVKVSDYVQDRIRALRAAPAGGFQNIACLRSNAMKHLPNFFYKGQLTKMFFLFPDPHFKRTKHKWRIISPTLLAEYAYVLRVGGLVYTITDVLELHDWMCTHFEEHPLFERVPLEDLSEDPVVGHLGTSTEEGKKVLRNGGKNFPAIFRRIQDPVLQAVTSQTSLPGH
Sequence of METTL1/WDR4 (P57081 whole entry partner, species assumed): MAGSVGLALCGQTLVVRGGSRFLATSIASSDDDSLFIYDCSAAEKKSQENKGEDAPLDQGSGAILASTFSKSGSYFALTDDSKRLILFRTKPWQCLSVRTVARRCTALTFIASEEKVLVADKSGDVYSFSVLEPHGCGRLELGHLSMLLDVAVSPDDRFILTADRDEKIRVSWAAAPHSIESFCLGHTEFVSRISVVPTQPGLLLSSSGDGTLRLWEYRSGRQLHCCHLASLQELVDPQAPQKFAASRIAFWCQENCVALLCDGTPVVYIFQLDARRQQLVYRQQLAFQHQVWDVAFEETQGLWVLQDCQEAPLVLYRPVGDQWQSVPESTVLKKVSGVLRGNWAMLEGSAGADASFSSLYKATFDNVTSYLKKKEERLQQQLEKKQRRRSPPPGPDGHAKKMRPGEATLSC

IC50 (MOLM-13 cells) | SMILES | IC50 (METTL3/METTL14) | IC50 (METTL16) | IC50 (PRMT5-MEP50) | IC50 (METTL1/WDR4)
1000 to 10000 nM | COCc1cn(-c2cncc(COc3ccc4ccc(N5CCC5)nc4c3)c2)c2ncnc(N)c12 [Compound I-237] | < 10 nM |  |  | 
< 1000 nM | CCCc1cc(N)c2ccc(CCc3cncc(-n4cc(-c5ccn(C)n5)c5c(N)ncnc54)c3)cc2n1 [Compound I-131] | < 10 nM |  |  | 
< 1000 nM | CCNc1ccc2ccc(OCc3cncc(-n4cc([C@@H]5CCCO5)c5c(N)ncnc54)c3)cc2n1 [Compound I-146] | < 10 nM |  |  | 
< 1000 nM | CCc1cc(NCCOC)c2c(F)cc(CCc3cncc(-n4cc(-c5ccn(C)n5)c5c(N)ncnc54)c3)cc2n1 [Compound I-228] | < 10 nM |  |  | 
< 1000 nM | CCc1cc(N2CCOCC2)c2ccc(OCc3cncc(-n4cc([C@H]5CCCO5)c5c(N)ncnc54)c3)cc2n1 [Compound I-142] | 10 to 100 nM |  |  | 
< 1000 nM | CCc1cc(N2CCOCC2)c2ccc(OCc3cncc(-n4cc([C@@H]5CCCO5)c5c(N)ncnc54)c3)cc2n1 [Compound I-143] | < 10 nM |  |  | 
 | CNc1ccc2ccc(OCc3cccc(-n4cc(C5CCCC5)c5c(N)ncnc54)c3)cc2n1 [Compound I-86] | 10 to 100 nM | > 1000 nM | > 1000 nM | > 1000 nM
< 1000 nM | Nc1ncnc2c1c([C@H]1CCCO1)cn2-c1cncc(COc2ccc3ccc(N4CCC4)nc3c2)c1 [Compound I-144] | < 10 nM |  |  | 
 | CNc1ccc2ccc(OCc3cc(-n4cc(Cl)c5c(N)ncnc54)ncn3)cc2n1 [Compound I-64] | > 1000 nM | > 1000 nM | > 1000 nM | > 1000 nM
 | CNc1ccc2ccc(OCc3cccc(-n4ccc5c(N)ncnc54)c3F)cc2n1 [Compound I-226] | 10 to 100 nM | > 1000 nM | > 1000 nM | > 1000 nM
 | CNc1ccc2ccc(OCc3cc(-n4cc(Cl)c5c(N)ncnc54)ccc3F)cc2n1 [Compound I-80] | 10 to 100 nM | > 1000 nM | > 1000 nM | > 1000 nM
 | CNc1ccc2ccc(OCc3cc(O)cc(-n4cc(Cl)c5c(N)ncnc54)c3)cc2n1 [Compound I-81] | 10 to 100 nM | > 1000 nM | > 1000 nM | > 1000 nM
 | CNc1ccc2ccc(OCc3cccc(-n4ccc5c(N)ncnc54)c3)cc2n1 [Compound I-78] | 10 to 100 nM | > 1000 nM | > 1000 nM | > 1000 nM
 | Nc1ccc2ccc(OCc3cccc(-n4cc(Cl)c5c(N)ncnc54)c3)cc2n1 [Compound I-77] | > 1000 nM | > 1000 nM | > 1000 nM | > 1000 nM
 | CCc1ncc(-n2cc(Cl)c3c(N)ncnc32)cc1COc1ccc2ccc(NC)nc2c1 [Compound I-68] | 10 to 100 nM | > 1000 nM | > 1000 nM | > 1000 nM
 | CNc1ccc2ccc(OCc3cccc(-n4cc(C5CC5)c5c(N)ncnc54)c3)cc2n1 [Compound I-73] | 10 to 100 nM | > 1000 nM | > 1000 nM | > 1000 nM
 | CNc1ccc2ccc(OCc3cc(F)cc(-n4cc(Cl)c5c(N)ncnc54)c3)cc2n1 [Compound I-76] | 10 to 100 nM | > 1000 nM | > 1000 nM | > 1000 nM
 | CNc1ccc2ccc(OCc3cccc(-n4cc(Cl)c5c(N)ncnc54)n3)cc2n1 [Compound I-84] | 10 to 100 nM | > 1000 nM | > 1000 nM | > 1000 nM
 | CNc1ccc2ccc(CNc3cccc(-n4cc(Br)c5c(N)ncnc54)c3)cc2n1 [Compound I-72, 7-{[(3-{4-amino-5-bromo-7H-pyrrolo[2,3-d]pyrimidin-7-yl}phenyl)amino]methyl}-N-methylquinolin-2-amine] | 100 to 1000 nM | > 1000 nM | > 1000 nM | > 1000 nM
 | CNc1ccc2ccc(OCc3cccc(-n4cc(CC5CC5)c5c(N)ncnc54)c3)cc2n1 [Compound I-79] | 10 to 100 nM | > 1000 nM | > 1000 nM | > 1000 nM
 | Cc1cc(N)c2ccc(OCc3cccc(-n4ccc5c(N)ncnc54)c3)cc2n1 [Compound I-66] | 100 to 1000 nM | > 1000 nM | > 1000 nM | > 1000 nM
 | CNc1ccc2ccc(OCc3cccc(-n4cc(CCN(C)C)c5c(N)ncnc54)c3)cc2n1 [Compound I-32] | 100 to 1000 nM | > 1000 nM | > 1000 nM | > 1000 nM
 | CNc1ccc2ccc(OCc3cncc(-n4cc(C5CCN(C)CC5)c5c(N)ncnc54)c3)cc2n1 [Compound I-33] | 100 to 1000 nM | > 1000 nM | > 1000 nM | > 1000 nM
 | CNc1ccc2ccc(OCc3nnc(-n4cc(Cl)c5c(N)ncnc54)s3)cc2n1 [Compound I-62] | > 1000 nM | > 1000 nM | 10 to 100 nM | > 1000 nM
 | Cc1cc(N)c2ccc(OCc3cccc(-n4cc(Cl)c5c(N)ncnc54)c3)cc2n1 [Compound I-65] | 10 to 100 nM | > 1000 nM | > 1000 nM | > 1000 nM
